# Measurements as given in ChEMBL document CHEMBL4422694, “α-Glucosidase Inhibitory Flavonoids and Oxepinones from the Leaf and Twig Extracts of Desmos cochinchinensis” (J Nat Prod, 2019).
# Legend:
# [1] = tested on: Saccharomyces cerevisiae; experiment: Inhibition of Saccharomyces cerevisiae alpha-glucosidase at 200 ug/mL using p-nitrophenyl alpha-D-glucoside as substrate by colorimetric assay
# [2] = Inhibition of Saccharomyces cerevisiae alpha-glucosidase using p-nitrophenyl alpha-D-glucoside as substrate by colorimetric assay
Structure (SMILES),inhibition [1] [%],IC50 [2] [µM]
O=C(OCc1ccccc1O)c1ccccc1,97.5,4.3
COc1cc(O)c2c(=O)cc(-c3ccccc3)oc2c1 [TECHTOCHRYSIN],90.9,158
O=c1cc(-c2ccccc2)oc2c(Cc3cccc(O)c3O)c(O)cc(O)c12,96.1,0.9
O=C1C[C@@H](c2ccccc2)Oc2cc(O)cc(O)c21 [PINOCEMBRIN],97.7,4.3
O=C1C[C@@H](c2ccccc2)Oc2cc(O)c(Cc3ccccc3O)c(O)c21 [ISOCHAMANETIN],93.2,2.9
O=c1cc(-c2ccccc2)oc2cc(O)cc(O)c12 [CHRYSIN],95.4,4.9
O=c1cc(-c2ccccc2)oc2c(Cc3cc(O)ccc3O)c(O)cc(O)c12,95.8,0.9

# Second part, the molecule after the results:
inhibition [1] [%],IC50 [2] [µM],Structure (SMILES)
98.2,3.1,CC(=O)O[C@H]1C(=O)C=COC=C1COC(=O)c1ccccc1 [GRANDIUVARONE A]
99.1,0.2,O=C1C[C@@H](c2ccccc2)Oc2c(Cc3ccccc3O)c(O)c(Cc3ccccc3O)c(O)c21 [DICHAMANETIN]
98.7,71.7,O=C(OC[C@@]1(O)C(=O)C=C[C@@H](OC(=O)c2ccccc2)[C@@H]1O)c1ccccc1
99.1,40.7,CC(=O)OC/C=C\C=C(/COC(C)=O)COC(=O)c1ccccc1
95.5,3.6,CC(=O)O[C@@H]1C=COC=C(COC(=O)c2ccccc2)C1=O
,171,C[C@H]1O[C@H](O[C@H]2[C@H](O)[C@@H](O)[C@@H](O[C@H]3[C@H](O)[C@@H](O)C(O)O[C@@H]3CO)O[C@@H]2CO)[C@H](O)[C@@H](O)[C@@H]1N[C@H]1C=C(CO)[C@@H](O)[C@H](O)[C@H]1O (some centres undefined) [ACARBOSE]
94,139,CC(=O)OC/C=C\C=C(/CO)COC(=O)c1ccccc1
92.1,4.9,CC(=O)O[C@@H]1C=COC=C(CO)C1=O
